Test results: patent publication US20250205192A1, “METHODS AND MATERIALS FOR TREATING PANCREATIC DISEASES AND DISORDERS” (MAYO FOUNDATION FOR MEDICAL EDUCATION AND RESEARCH, priority 2022, published 2025)
“Also recorded” adds a separate entry of the source.

Tested on: male CD-1 mice
Assay: Intraperitoneal GTL injection in mice, peritoneal cavity assessed for nodules, adhesions and fibrosis after 1 week
Assay type: in vivo
Procedure: 25% glyceryl trilinoleate (GTL) homogenous suspension in saline was prepared by heating, mixing, and sonication.
Agent 767 was dissolved in a 25% sonicated suspension of GTL in saline. This was prepared by adding […] of the 25% GTL suspension to 10 mg of 767 at room temperature. The solution was then mixed, heated gently to 37-40° C., and sonicated to ensure homogeneous emulsion.
Each experiment used 4 male CD-1 mice (35-39 grams).
Two mice were each given 0.2 mL of 25% GTL by intraperitoneal injection.
Two mice were given 0.2 mL of 767 in 25% GTL by intraperitoneal injection.
Mice were sacrificed after 1 week, and the peritoneal cavity was assessed for nodules.

In the case of `CCCCC/C=C\C/C=C\CCCCCCCC(=O)OCC(COC(=O)CCCCCCC/C=C\C/C=C\CCCCC)OC(=O)CCCCCCC/C=C\C/C=C\CCCCC` [GTL, glyceryl trilinoleate], the “adherence of duodenum, pancreas and spleen after GTL alone” value (en bloc excised organs from mice given GTL intraperitoneally) is reported as “adherent and difficult to separate”, the “peritoneal appearance (nodules and strands) after GTL alone” value (mice given 0.2 mL of 25% GTL by intraperitoneal injection, 1 week, compared with control mice) is reported as “had nodules and strands; also recorded: had clearly discernable nodules” and the “pancreatitis abnormalities by blood urea nitrogen (BUN), glucose or albumin levels after GTL alone” value (mice given GTL intraperitoneally) is reported as “did not exhibit pancreatitis abnormalities”. For the same compound, the “fibrosis of the wall of the nodules (Sirius red stain) after GTL alone” value (nodules from mice given GTL intraperitoneally) was “strongly positive for fibrosis”.

With `CCCCCCCCCCC[C@@H](C[C@@H]1OC(=O)[C@H]1CC)OC(=O)[C@H](C)NC=O` [compound 767] the “nodules in the peritoneal cavity and in the vicinity of the pancreas” value (mice given 0.2 mL of 767 in 25% GTL by intraperitoneal injection, sacrificed after 1 week, compared with GTL only) was “did not have noticeable nodules” and the “adhesions in the peritoneal cavity in spaces away from the pancreas” value (mice given 767 in 25% GTL intraperitoneally, 1 week) was “prevented adhesions”.
